A short description of data set [1]: Heat treatment stability (coloration or decomposition). It is filed as physicochemical. Conditions: pH of 2 to 8 at 100° C. for 1 hour. An excerpt: In the present invention, as a carrier for the skin care agent, foods such as confectioneries, powdered soups, dairy products and beverages, may, for example, be mentioned. As such foods, specifically, gum, candies, tabletted confectioneries, chocolate, jelly, cookies, snacks, corn potage soup, consomme soup, milk, pudding, yogurt, ice cream, lactic acid beverages, alcohol beverages, vitamin beverages, mineral beverages, coffee beverages, near water, nutrition drinks, and the like, may be mentioned.

Data set [2] relates to hyaluronic acid in skin. Put plainly: Influence of orally administered NAG on hyaluronic acid content in skin. Type of data set: in vivo, hairless rats. The conditions noted are these: for Hyaluronic acid content, Epidermis / Hyaluronic acid content, Corium: hairless rats; for Hyaluronic acid content, Epidermis: 4 weeks (0 mg/kg/day: 31.25); for Hyaluronic acid content, Corium: 4 weeks (0 mg/kg/day: 462.7). How it is done: Using hairless rats, influence of orally administered NAG on the content of hyaluronic acid in skin was tested. The NAG prepared in PREPARATION EXAMPLE 1 was mixed to a basic feed (Solid feed MF, manufactured by Oriental Kobo Kogyo Kabushiki Kaisha), and rats were permitted to freely ingest the mixture so that the substantial administered amount of NAG would be 0, 20 or 200 mg/kg of body weight/day. Administration was continued for 4 weeks from 9 week instar to 13 week instar, and the hyaluronic acid amounts in skin layer were measured separately for epidermis and corium. In this connection, the measurement of the hyaluronic acid was carried out in accordance with a hyaluronic acid measurement kit (manufactured by Chugai Shindanyaku Co.).

The subject of data set [3] is moisture content of epidermis. The experiment in a line: Skin moisture content by Corneometer CM825. Type of data set: in vivo, human. The conditions noted are these: for Moisture content, Left upper arm / Moisture content, Poll / Moisture content, Below left eye: NAG 1,000 mg/day oral. How it is done:
To 22 females usually having a tendency of xeroderma and rough skin (average age: 25.5±10.7), a double blind long-term ingestion study was carried out in the following manners provided that a […] were given to a control group.
NAG-containing tablets-administered group (NAG group, n=11): Tablets prepared similarly as in Example 1 as described below (NAG amount: 200 mg/tablet), were ingested at a rate of 5 tablets/day (NAG 1,000 mg/day, as a daily dose).
The ingestion period was 8 weeks in each group. The inspection was in principle carried out just before the start of ingestion, 4 weeks after the start of ingestion, and just before the completion of ingestion (8 weeks after the start of ingestion).
The moisture content was measured by using Corneometer CM825 (manufactured by Courage+Khazaka Electronic Gmbh). This apparatus measures the moisture content of epidermis by measuring the electrostatic capacity via corneal layer, and is known to be less in error as compared with a conventional impedance method or infrared spectrophotometric method.
Measurement sites were 1 cm below the left eye, medial part of left upper arm (3 cm above the elbow), and poll (3 cm below spinous process of neck). With respect to the oil and fat content, since most subjects were scored at 0 at the left upper arm and the poll, only the site below the left eye was measured from the 2nd inspection.
In order to keep the environments for the measurements as equal as possible, a room having its internal conditions adjusted to be constant was prepared before the measurements (room temperature: 18 to 20° C., humidity: 45 to 60%), and the subjects were asked to keep in rest in this room for at least 30 minutes. Further, with respect to the makeup at the measurement site, it was in principle prohibited to put on makeup from 60 minutes before the inspection.

Regarding `CC(=O)N[C@H]1C(O)O[C@H](CO)[C@@H](O)[C@@H]1O` (stereo partly shown) [NAG, N-acetylglucosamine], the “coloration or decomposition on heat treatment” value in data set [1] is listed as “not to show coloration or decomposition”. The “hyaluronic acid contents in epidermis and corium versus administered amount” value in data set [2] (hairless rats, 0, 20 or 200 mg/kg/day, 4 weeks) is “tend to increase together in proportion to the administered amounts”. Moreover, the “Hyaluronic acid content, Epidermis” value in data set [2] (NAG 20 mg/kg/day in feed) worked out at 33.77 μg/g dried tissue; in data set [2] (NAG 200 mg/kg/day in feed), 35.09 μg/g dried tissue. Further, the results for the “Hyaluronic acid content, Corium” value in data set [2] (NAG 20 mg/kg/day in feed) and in data set [2] (NAG 200 mg/kg/day in feed) were 506.6 μg/g dried tissue and 549.8 μg/g dried tissue, respectively. The “Moisture content, Left upper arm” value in data set [3] (after 4 weeks) is reported as 38.7 ± 5.8; in data set [3] (after 8 weeks), 36.2 ± 6.8; in data set [3] (before ingestion) it was 37.8 ± 7.8. Moreover, the “Moisture content, Poll” value in data set [3] (after 4 weeks) is given as 51.9 ± 5.4; in data set [3] (after 8 weeks), 52.1 ± 10.9; in data set [3] (before ingestion), 51.3 ± 5.6. For the same compound, the “Moisture content, Below left eye” value worked out at 58.8 ± 14.2 in data set [3] (after 4 weeks, p < 0.05); 56.2 ± 8.4 in data set [3] (after 8 weeks, p < 0.01); 48.0 ± 8.8 in data set [3] (before ingestion). Besides, the “moisture content at the site below the left eye, change” value in data set [3] (NAG group, 1,000 mg/day oral, 8 weeks) is reported as “significant increase”.

For the origin of these results see patent US6919306B2, “Method of skin care” (Yaizu Suisankagaku Industry Co. Ltd., priority 1999, dated 2005).
